Our source for the melting point values is a melting point compilation (Tetko et al.; mined from patent text by program, amines drawn as free bases though some values may be those of a salt).

The term melting point denotes the temperature of the solid-liquid transition.

A value given as a limit tells only on which side of the number the result lay.

`COc1cccc(CC(N)C(=O)O)c1OCCc1ccccc1` (racemic): the melting point fell in the range of 180 to 182 °C. For `O=C(NC1CCCCC1)C12CC3CC(CC(C3)C1)C2` the value was 199 to 200 °C; for `CCCCCCCCCCCCCCCCCCS(=O)c1cc2ccccc2c(N=Nc2ccc(OC)cc2)c1O` (centres undefined), 108 to 110 °C. As for `COc1ccc2c(c1)CN(C(=O)NO)N=C2Cc1c(Cl)cncc1Cl`, the melting point was in the range of 155 to 158 °C.

As for `O=C1OCC(c2ccccc2)C1CS` (centres undefined), the melting point was in the range of 41 to 42 °C. Consider `O=Cc1sc2ccccc2c1-c1ccccc1`, for which the melting point fell in the range of 86 to 89 °C. In the case of `N#CCCNC(=O)c1cccc(-c2ccc3c(c2)N(c2ccc(Cl)cc2Cl)CCCC3)c1`, the melting point lay in the range of 139 to 142 °C. On to `CS(=O)(=O)c1ccc(-n2cccc2-c2ccc(Cl)cc2)cc1`, for which the melting point is 203 to 205 °C. As for `C#CCON=C(C(C)=NOCc1ccccc1C(=COC)C(=O)OC)c1ccccc1`, the melting point lay in the range of 163 to 165 °C. `COC(=O)c1ccc(CCc2nc(-c3ccccc3)oc2C)cc1` yielded a melting point of 59 to 60 °C. Regarding `COC(=O)Cc1ccc(OCC(C)NCC(O)c2cccc(F)c2)cc1` (centres undefined), the melting point was determined as 52 °C.

Consider `CCOC(=O)c1c(Cl)nc2ccccc2c1-c1ccc(F)cc1`, for which the melting point lay within 113 to 114 °C. Take `Cc1ccc(S(=O)(=O)OCC2Cc3cccc(-c4ccc(F)cc4F)c3O2)cc1` (centres undefined): the melting point fell in the range of 116 to 118 °C. In turn, `C=CCc1cc(OC)c(OC)cc1Cc1cnc(N)nc1N` showed a melting point of 170 to 171 °C. With `CN(Cc1cc(Cl)c(O)c(Br)c1)C1CCCCC1` the figure was 136 to 138 °C; with `COC(=O)c1ccc(Br)cc1Cl`, 28 to 30 °C. For the compound `Cc1cc2c(cc1C)C1(CO2)C(=O)Nc2ccccc21` (centres undefined), the melting point is 206 to 207 °C. As to `CN(C)S(=O)(=O)c1ccc(Oc2ccc(S(C)(=O)=O)cc2)cc1`, the melting point is 128 to 130 °C. For `Cc1ccc(S(=O)(=O)OCC2COc3cccc4[nH]c(=O)n2c34)cc1` (centres undefined) the value was 140 to 142 °C; for `COc1cc(C(=O)c2ncc3ccccn23)ccc1[N+](=O)[O-]`, 183 °C; for `Cc1nc(N2CCN(CC3CC3)C2=O)sc1C(=O)NCc1cccnc1`, 157 to 158 °C. In turn, `N#CCCNC(=O)c1cccc(-c2ccnc3cc(Cc4cccc(C(F)(F)F)c4)nn23)c1` came in with a melting point of 153 to 154 °C. `COc1cc(C(=O)NC=NC(=O)ON(c2ccc(C)c(NC(=O)c3ccc(OCc4ccccc4)cc3)c2)C(C)(C)C)cc(OC)c1OC` yielded a melting point of 94 °C.

Consider `N#Cc1cccc(-n2ncc(C(=O)O)c2C#N)c1`, for which the melting point was 190 to 192 °C.

In turn, `CC(C)C[C@H](NC(=O)[C@H](CC(C)C)N[C@H](CC(C)C)C(=O)OCc1ccccc1)C(=O)N[C@@H](C)C(N)=O` showed a melting point of 133 to 134 °C. `BrCCCCOc1ccc2c(ccn2-c2ccc(Br)cc2)c1` came in with a melting point of 80 to 81 °C. In turn, `OCC1OC(n2cc(COc3ccc(C4=NC(=Nc5[nH]c(-c6ccc(O)cc6)cc5-c5ccccc5)C(c5ccccc5)=C4)cc3)nn2)C(O)C(O)C1O` (centres undefined) registered a melting point of 180 to 182 °C. For the compound `CC(C)(C)C(NC(=O)c1cccc(Cl)c1)Nc1c(Nc2ccc(C(F)(F)F)nc2)c(=O)c1=O` (centres undefined), the melting point lay within 226 to 227 °C.

The compound `C=C(C)COc1ccc2c(C)cc(=O)oc2c1C(=O)C=Cc1cccnc1` came in with a melting point of 110 to 112 °C.

`O=C(O)c1ccc(-c2nnc(-c3ccc(C(F)(F)F)cc3)o2)cc1` showed a melting point above 300 °C. With `Oc1ccc(-c2nc(-c3ccccc3)nc3ccccc23)c(O)c1`, the melting point fell in the range of 178 to 180 °C. For the compound `CCC1c2cc(OC)c(OC)cc2C(c2ccc(OC)c(OC)c2)=NNC1C` (centres undefined), the melting point fell in the range of 120 to 122 °C. `N#Cc1nc(F)c(F)c(F)c1Cl` registered a melting point of 41.5 to 43 °C.

For `CC(NC(=O)C1=C(C(=O)Nc2cc(OC3CCCC3)c(Cl)cc2F)CCCC1)c1cccc2ccccc12` (centres undefined), the melting point lay within 198 to 201 °C.
